{"source": "patent US9017692B2", "about": "“Antimicrobial agent, bacterial strain, biosynthesis, and methods of use” (priority 2011, dated 2015)", "key": {"[1]": {"system": "PAE.2281", "assay": "MIC, CLSI broth microdilution, Gram-negative clinical isolates", "assay_type": "cell-based, Pseudomonas aeruginosa", "method": "(§1) Plates were incubated at 35° C. for 24 h.\n(§2) The activity of paenibacterin was also tested against clinical isolates of the following Gram-negative bacterial strains: four strains of the species Pseudomonas aeruginosa (PAE), three strains of the species Acinetobacter baumannii (ABA), two strains of the species Escherichia coli (ECO), and four strains of the species Klebsiella pneumoniae (KPN). Particularly, the strains of Gram-negative bacteria included polymyxin B-resistant (PMB-R) and polymyxin B-sensitive (PMB-S) strains of each above listed species. The MICs were determined using the above described CLSI broth microdilution method, in which the method was performed with both non-binding surface coated (NBS) and polystyrene (PS) 96-well plates (Tables 11 and 12, respectively). The MICs were generally lower in the NBS 96-well plates as compared to the PS 96-well plates."}, "[2]": {"system": "PAE.999", "assay": "MIC, CLSI broth microdilution, Gram-negative clinical isolates", "assay_type": "cell-based, Pseudomonas aeruginosa", "method": "as §1, §2"}, "[3]": {"system": "PAE.2325", "assay": "MIC, CLSI broth microdilution, Gram-negative clinical isolates", "assay_type": "cell-based, Pseudomonas aeruginosa", "method": "as §1, §2"}, "[4]": {"system": "PAE.44", "assay": "MIC, CLSI broth microdilution, Gram-negative clinical isolates", "assay_type": "cell-based, Pseudomonas aeruginosa", "method": "as §1, §2"}, "[5]": {"system": "Staphylococcus aureus", "assay": "MIC, summary of Table 13", "assay_type": "cell-based", "settings": "Staphylococcus aureus strains of Table 13; NBS plates", "method": "(§3) The activity of paenibacterin against several strains of Gram-positive and Gram-negative foodborne pathogens is summarized in Table 10. The data is reported as minimum inhibitory concentrations (MIC) as an average of three replicates for paenibacterin against the various listed bacterial strains. […] MICs were determined according to the CLSI broth microdilution method (see, Clinical and Laboratory Standards Institute (CLSI). 2009. Methods for dilution antimicrobial susceptibility tests for bacteria that grow aerobically; approved standard. […]. CLSI, Wayne, Pa.). Briefly, HPLC-purified paenibacterin was dissolved in methanol and diluted to appropriate concentration with cation-adjusted Mueller-Hinton II broth (Difco). Aliquots (25 μl) of serially-diluted paenibacterin was dispensed into wells of a 96-well plate; an equal amount of 1/10 diluted overnight bacterial culture was added to wells. Plates were incubated at 35° C. for 24 h. Cell growth after incubation was examined and determined using a microtiter plate reader at 600 nm. Concentration of paenibacterin is determined based on a molecular weight of 1604 Da.\n(§4) The activity of paenibacterin was further tested against clinical isolates of the following Gram-positive bacteria: methicillin-sensitive Staphylococcus aureus (MSSA), methicillin-resistant S. aureus (MRSA), vancomycin-sensitive Enterococcus faecalis, vancomycin-resistant E. faecalis (VRE), Streptococcus pneumoniae, and laboratory derived daptomycin-resistant (DR) MSSA, MRSA, and VRE strains. The MICs were determined using the above described CLSI broth microdilution method, in which the method was performed with non-binding surface coated (NBS) 96-well plates."}, "[6]": {"system": "Enterococcus faecalis", "assay": "MIC, summary of Table 13", "assay_type": "cell-based", "settings": "Enterococcus faecalis strains of Table 13; NBS plates", "method": "as §3, §4"}, "[7]": {"system": "Streptococcus pneumoniae", "assay": "MIC, summary of Table 13", "assay_type": "cell-based", "settings": "NBS plates", "method": "as §3, §4"}, "[8]": {"system": "WT ATCC 29212 EFS.43", "assay": "microbe, parasite or virus in culture", "settings": "EFS.43, WT ATCC 29212; NBS 96-well plates", "method": "as §3, §4"}, "[9]": {"system": "DR-MRSA from MW2 SP SAU.1616", "assay": "microbe, parasite or virus in culture", "settings": "SAU.1616, DR-MRSA from MW2 SP; NBS 96-well plates", "method": "as §3, §4"}, "[10]": {"system": "MSSA ATCC 29213 SAU.42", "assay": "microbe, parasite or virus in culture", "settings": "SAU.42, MSSA ATCC 29213; NBS 96-well plates", "method": "as §3, §4"}, "[11]": {"system": "DS-VRE ATCC 700802 EFS.807", "assay": "microbe, parasite or virus in culture", "settings": "EFS.807, DS-VRE ATCC 700802; NBS 96-well plates", "method": "as §3, §4"}, "[12]": {"system": "DR-VRE from EFS.807 EFS.2731", "assay": "microbe, parasite or virus in culture", "settings": "EFS.2731, DR-VRE from EFS.807; NBS 96-well plates", "method": "as §3, §4"}, "[13]": {"system": "DR-MSSA from SAU.42 SAU.278", "assay": "microbe, parasite or virus in culture", "settings": "SAU.278, DR-MSSA from SAU.42; NBS 96-well plates", "method": "as §3, §4"}, "[14]": {"system": "WT ATCC 49619 SPN.31", "assay": "microbe, parasite or virus in culture", "settings": "SPN.31, WT ATCC 49619; NBS 96-well plates", "method": "as §3, §4"}, "[15]": {"system": "MRSA ATCC 43300 SAU.399", "assay": "microbe, parasite or virus in culture", "settings": "SAU.399, MRSA ATCC 43300; NBS 96-well plates", "method": "as §3, §4"}, "[16]": {"system": "Lactobacillus plantarum ATCC 8014", "assay": "Spot-on-lawn antimicrobial activity", "assay_type": "cell-based", "settings": "MRS", "method": "(§5) Spot-on-lawn method [He, Z., et al., Appl. Environ. Microbiol., (2007) 73:168-178] was used for the bioassay of antimicrobial activity. Bacterial indicators were incubated at 37° C. for 24 h, except Pseudomonas putida, Clostridium difficile and methycillin resistant Staphylococcus aureus which were incubated for 48 h (Table 1). The indicator overlay was prepared by pouring 10 ml soft agar (seeded with 10 μL indicator culture) onto tryptose agar as basal medium in a petri dish. Purified antimicrobials were two-fold serially diluted and aliquots (10 μL each) were spotted onto the soft agar. The plates were incubated overnight and inspected for the presence of growth inhibition zones. Antimicrobial activity was expressed in arbitrary units (AU)/mL; this value is the reciprocal of the highest dilution displaying a zone of inhibition corresponding to 1 mL of the non-diluted antimicrobial preparation.\n(§6) Purified paenibacterin was used for the antimicrobial spectrum test. Microorganisms tested for sensitivity to this compound included pathogenic (e.g., Salmonella Typhimurium, Escherichia coli O157:H7, Listeria monocytogenes, and Staphylococcus aureus) and non-pathogenic (e.g., Escherichia coli K-12, Pseudomonas putida, and Enterococcus faecalis) bacteria (Table 1)."}, "[17]": {"system": "Clostridium difficile A515", "assay": "Spot-on-lawn antimicrobial activity", "assay_type": "cell-based", "settings": "BHIYE", "method": "as §5, §6"}, "[18]": {"system": "Listeria monocytogenes Scott A", "assay": "Spot-on-lawn antimicrobial activity", "assay_type": "cell-based", "settings": "TSBYE", "method": "as §5, §6"}, "[19]": {"system": "Bacillus cereus ATCC 14579", "assay": "Spot-on-lawn antimicrobial activity", "assay_type": "cell-based", "settings": "TSBYE", "method": "as §5, §6"}, "[20]": {"system": "Staphylococcus aureus ATCC 6538", "assay": "Spot-on-lawn antimicrobial activity", "assay_type": "cell-based", "settings": "TSBYE", "method": "as §5, §6"}, "[21]": {"system": "L. lactis ATCC 11454", "assay": "Spot-on-lawn antimicrobial activity", "assay_type": "cell-based", "settings": "MRS", "method": "as §5, §6"}}, "data": [{"substance": "paenibacterin", "values": [{"measurement": "Minimum inhibitory concentration (MIC)", "setting": "[1]; NBS 96-well plates", "value": "32 to 64", "unit": "µg/mL"}, {"measurement": "Minimum inhibitory concentration (MIC)", "setting": "[1]; PS 96-well plates", "value": 64, "unit": "µg/mL"}, {"measurement": "Minimum inhibitory concentration (MIC)", "setting": "[2]; NBS 96-well plates", "value": 8, "unit": "µg/mL"}, {"measurement": "Minimum inhibitory concentration (MIC)", "setting": "[2]; PS 96-well plates", "value": 64, "unit": "µg/mL"}, {"measurement": "Minimum inhibitory concentration (MIC)", "setting": "[3]; NBS 96-well plates", "value": 16, "unit": "µg/mL"}, {"measurement": "Minimum inhibitory concentration (MIC)", "setting": "[3]; PS 96-well plates", "value": 64, "unit": "µg/mL"}, {"measurement": "Minimum inhibitory concentration (MIC)", "setting": "[4]; non-binding surface coated (NBS) 96-well plates", "value": 8, "unit": "µg/mL"}, {"measurement": "Minimum inhibitory concentration (MIC)", "setting": "[4]; polystyrene (PS) 96-well plates", "value": 64, "unit": "µg/mL"}, {"measurement": "MIC", "setting": "[5]", "value": "32 to 64", "unit": "µg/mL"}, {"measurement": "MIC", "setting": "[6]", "value": "32 to 64", "unit": "µg/mL"}, {"measurement": "MIC", "setting": "[7]", "value": "32 to 64", "unit": "µg/mL"}, {"measurement": "Minimum inhibitory concentration (MIC)", "setting": "[8]", "value": "32 to 64", "unit": "µg/mL"}, {"measurement": "Minimum inhibitory concentration (MIC)", "setting": "[9]", "value": 32, "unit": "µg/mL"}, {"measurement": "Minimum inhibitory concentration (MIC)", "setting": "[10]", "value": 32, "unit": "µg/mL"}, {"measurement": "Minimum inhibitory concentration (MIC)", "setting": "[11]", "value": 64, "unit": "µg/mL"}, {"measurement": "Minimum inhibitory concentration (MIC)", "setting": "[12]", "value": 8, "unit": "µg/mL"}, {"measurement": "Minimum inhibitory concentration (MIC)", "setting": "[13]", "value": 64, "unit": "µg/mL"}, {"measurement": "Minimum inhibitory concentration (MIC)", "setting": "[14]", "value": 64, "unit": "µg/mL"}, {"measurement": "Minimum inhibitory concentration (MIC)", "setting": "[15]", "value": 32, "unit": "µg/mL"}, {"measurement": "Antimicrobial activity (AU/ml)", "setting": "[16]", "value": 400, "unit": "AU/ml"}, {"measurement": "Antimicrobial activity (AU/ml)", "setting": "[17]", "value": 200, "unit": "AU/ml"}, {"measurement": "Antimicrobial activity (AU/ml)", "setting": "[18]", "value": 800, "unit": "AU/ml"}, {"measurement": "Antimicrobial activity (AU/ml)", "setting": "[19]", "value": 800, "unit": "AU/ml"}, {"measurement": "Antimicrobial activity (AU/ml)", "setting": "[20]", "value": 100, "unit": "AU/ml"}, {"measurement": "Antimicrobial activity (AU/ml)", "setting": "[21]", "value": 800, "unit": "AU/ml"}]}]}
